Here are results for three compounds from patent US12194158B2, “Oromucosal nanofiber carriers for therapeutic treatment” (Instar Technologies A.S., priority 2016, dated 2025).

Where a name gives a salt, the structure may show the parent alone.

The conditions of data set [1]: acidic stomach pH; cited from earlier work.
Data set [2] in a line: In vitro transmucosal permeation of liraglutide through porcine sublingual mucosa (Franz diffusion cell). The data set is classed as in vitro ADME. The following applies: from nanofibre carrier. On the procedure: The liraglutide containing nanofibre carrier samples or the reference solution samples were applied onto fresh porcine sublingual mucosa of thickness ca 0.4 mm fixed in a Franz diffusion cell. An exposed mucosal area for permeation was 1.0 cm^2, and the stirred acceptor phase was phosphate buffer pH 7.4 tempered at 37°±0.5° C. Both the tested solutions (Victoza pre-filled pen for subcutaneous injection, 6 mg/mL and the liraglutide solution in buffer pH 6.80, 0.4 mg/mL) were applied onto the sublingual membrane in 400 μL volume. Donor nanofibre samples contained 0.5 mg of liraglutide in the form of a multilayered nanofibre disc and were suffused in donor space with 400 μL of buffer pH 6.80 or 8.15, respectively.
Determination of liraglutide was performed on an Agilent 1200 instrument. The parameters were as follows: Column Poroshell 120 EC-C18 (4.6×150 mm, particle size: 5.0 μm) was thermostated at 35° C. Samples were kept at 10° C., injection 5.00 μL. Mobile Phase A: Na2HPO4 (pH 7.75):ACN (85:15) was mixed with Mobile Phase B: ACN in gradient and pumped at speed 1.200 mL/min. Detector wavelength: 215 nm. Resulting liraglutide retention time was ca 3.4 min.

For data set [3] the following is noted: after oral administration; cited from earlier work.

Consider `CCCCCCOC(=O)NC(=N)c1ccc(NCc2nc3cc(C(=O)N(CCC(=O)OCC)c4ccccn4)ccc3n2C)cc1` [DG, Dabigatran ethexylate mesylate], for which the solubility entry in data set [1] is listed as “very good”.

For the compound `CCCCCCCCCCCCCCCC(=O)N[C@@H](CCC(=O)NCCCC[C@H](NC(=O)[C@H](C)NC(=O)[C@H](C)NC(=O)[C@H](CCC(N)=O)NC(=O)CNC(=O)[C@H](CCC(=O)O)NC(=O)[C@H](CC(C)C)NC(=O)[C@H](Cc1ccc(O)cc1)NC(=O)[C@H](CO)NC(=O)[C@H](CO)NC(=O)[C@@H](NC(=O)[C@H](CC(=O)O)NC(=O)[C@H](CO)NC(=O)[C@@H](NC(=O)[C@H](Cc1ccccc1)NC(=O)[C@@H](NC(=O)CNC(=O)[C@H](CCC(=O)O)NC(=O)[C@H](C)NC(=O)[C@@H](N)Cc1cnc[nH]1)[C@@H](C)O)[C@@H](C)O)C(C)C)C(=O)N[C@@H](CCC(=O)O)C(=O)N[C@@H](Cc1ccccc1)C(=O)N[C@H](C(=O)N[C@@H](C)C(=O)N[C@@H](Cc1c[nH]c2ccccc12)C(=O)N[C@@H](CC(C)C)C(=O)N[C@H](C(=O)N[C@@H](CCCNC(=N)N)C(=O)NCC(=O)N[C@@H](CCCNC(=N)N)C(=O)NCC(=O)O)C(C)C)[C@@H](C)CC)C(=O)O` [Liraglutide], the “duration of further sublingual permeation in vitro” value in data set [2] is “about 1 hour”. Further, the “transmucosal permeation through the sublingual membrane” value in data set [2] (FIG. 5) is given as “able to permeate transmucosally”.

In the case of `CNS(=O)(=O)Cc1ccc2[nH]cc(CCN(C)C)c2c1` [sumatriptan], the oral bioavailability in data set [3] is reported as 15%.
